Reference: patent US8946149B2, “Use of exendin and analogs thereof to delay or prevent cardiac remodeling” (Amylin Pharmaceuticals, LLC, priority 2005, dated 2015)

How the values were obtained:
MI-induced rat model [1] = assay: Treadmill test, plasma lactate and insulin sensitivity in rats after myocardial infarction; format: in vivo, Sprague-Dawley rats
MI-induced rat model [2] = assay: Whole body composition, heart, lung weight and infarct size in rats with CHF after LAD ligation; format: in vivo, Sprague-Dawley rats; details: for B.W / Fat mass / Fluid mass / Infarct size / LV weight / LV weight/B.W. / Lean mass / Lung weight / Lung weight/B.W. / RV weight / RV weight/B.W.: 13th week of MI, mean ± SEM
Protocol: (§1) Male Sprague-Dawley® rats (250-300 g) are anesthetized by using 5% isoflurane and a left thoracotomy was performed. The left main anterior descending artery (LAD) was ligated to induce myocardial infarction. In addition, sham animals (n=10) were subjected to the same surgical procedure without ligation of the LAD.
(§2) After two weeks, rats were treated with 2.5 pmol/kg/min GLP-1 (n=11) (GLPL), 25 pmol/kg/min GLP-1 (n=12) (GLPH), 1.67 pmol/kg/min an exendin agonist, AC3174, (n=12) (AC3174L), 5 pmol/kg/min exendin agonist (n=7) (AC3174H), or vehicle (n=14) via subcutaneous infusion for 11 weeks. Echocardiography was performed at the 3rd, 5th, 9th, and 13th week of myocardial infarction. Left ventricular (LV) end systolic dimension (ESD) and diastolic dimension (EDD), LV systolic volume and diastolic volume, left atrial volume were recorded. At the 13th week of MI, the hearts were excised, the LV mass were weighed and LV mass/body weight ratio was determined.

MI-induced rat model [3] = assay: Echocardiography and cardiac function (E/A ratio, LVEDP, cardiac output, +dp/dtmax, LV dimensions) in rats after myocardial infarction; format: in vivo, Sprague-Dawley rats
Protocol: as §1, §2

cloned GLP-1 receptor = details: transfected cells; cited from earlier work
[4] = GLPH: GLP-1 25 pmol/kg/min s.c. infusion 11 weeks
[5] = GLPL: GLP-1 2.5 pmol/kg/min s.c. infusion 11 weeks

## GLP-1 (7-36) amide
MI-induced rat model [1]; at each dose, treadmill test
  effect on exercise capacity (EC): significantly improved
  effect on exercise efficiency (EC/VO2): significantly improved
MI-induced rat model [1]; chronic treatment
  effect on baseline plasma lactate: attenuated
  effect on exercise capacity/peak lactate ratio: improved
  effect on insulin sensitivity: improved
MI-induced rat model [2]; 25 pmol/kg/min s.c. infusion, p<0.05
  reduction of infarct size compared to the control group: 30%
MI-induced rat model [2]; [4]
  B.W: 518 ± 12 g
  Fat mass: 51 ± 9 g
  Fluid mass: 331 ± 15 g
  Infarct size: 29 ± 2%
  LV weight: 1.13 ± 0.03 g
  LV weight/B.W.: 0.22 ± 0.01 %
  Lean mass: 35 ± 2 g
  Lung weight: 1.66 ± 0.13 g
  Lung weight/B.W.: 0.32 ± 0.02 %
  RV weight: 0.23 ± 0.01 g
  RV weight/B.W.: 0.04 ± 0.00 %
MI-induced rat model [2]; [5]
  B.W: 523 ± 14 g
  Fat mass: 45 ± 6 g
  Fluid mass: 332 ± 11 g
  Infarct size: 30 ± 2%
  LV weight: 1.26 ± 0.05 g
  LV weight/B.W.: 0.24 ± 0.01%
  Lean mass: 37 ± 2 g
  Lung weight: 1.94 ± 0.35 g
  Lung weight/B.W.: 0.37 ± 0.07%
  RV weight: 0.22 ± 0.01 g
  RV weight/B.W.: 0.04 ± 0.00 %
MI-induced rat model [2]; chronic treatment
  effect on LV weight (summary): attenuated
  effect on infarction size (summary): reduced
MI-induced rat model [3]; at each dose, s.c. infusion 11 weeks, 13 weeks after MI, vs control (+116% vs sham)
  effect on the increase of E/A ratio during CHF progression: prevented increases
MI-induced rat model [3]; chronic treatment
  effect on enlargement of LV chamber: slowed
MI-induced rat model [3]; s.c. infusion 11 weeks, control reduced by 19% vs sham
  effect on cardiac output: normalized
MI-induced rat model [3]; s.c. infusion 11 weeks, control reduced by 24% vs sham
  effect on contractility (+dp/dtmax): normalized
MI-induced rat model [3]; s.c. infusion 11 weeks, progression of CHF
  effect on remodeling (LV mass, LV end diastolic dimension and systolic dimension increase): significantly reduced
MI-induced rat model [3]; s.c. infusion 11 weeks, vehicle group +97% vs sham
  effect on LV end diastolic pressure (LVEDP) elevation: eliminated

## exendin[9-39]: truncated exendin peptide, a carboxyamidated molecule, antagonist of GLP-1
Cloned GLP-1 receptor
  action at the cloned GLP-1 receptor (cAMP): antagonist
